From US11111247B2, “Pyrazolopyrimidine compounds and uses thereof” (Incyte Corporation, priority 2018, dated 2021)
Read-outs that look alike come from different tables or passages of the source.

Assays:
[1] = test system: RT112 cells; experiment: Luminescent Viability Assay (LVA, FGFR3); type: cell-based; details: Homo sapiens, RT-112, 72 h, 3 days, CellTiter-Glo
Summary of the method: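 RT112 bladder cells grown in RPMI with 10% FBS were exposed to a compound concentration range for 3 days. Viability read by CellTiter-Glo luminescence; IC50 fitted from percent inhibition versus log concentration.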

[2] = target: FGFR3 (Homo sapiens, UniProt P22607); experiment: pFGFR3 Functional Cell HTRF Assay (BAF3-TEL-FGFR3 cells); type: cell-based; details: 2 hours
Sequence of FGFR3 (P22607 23-806 limits assumed): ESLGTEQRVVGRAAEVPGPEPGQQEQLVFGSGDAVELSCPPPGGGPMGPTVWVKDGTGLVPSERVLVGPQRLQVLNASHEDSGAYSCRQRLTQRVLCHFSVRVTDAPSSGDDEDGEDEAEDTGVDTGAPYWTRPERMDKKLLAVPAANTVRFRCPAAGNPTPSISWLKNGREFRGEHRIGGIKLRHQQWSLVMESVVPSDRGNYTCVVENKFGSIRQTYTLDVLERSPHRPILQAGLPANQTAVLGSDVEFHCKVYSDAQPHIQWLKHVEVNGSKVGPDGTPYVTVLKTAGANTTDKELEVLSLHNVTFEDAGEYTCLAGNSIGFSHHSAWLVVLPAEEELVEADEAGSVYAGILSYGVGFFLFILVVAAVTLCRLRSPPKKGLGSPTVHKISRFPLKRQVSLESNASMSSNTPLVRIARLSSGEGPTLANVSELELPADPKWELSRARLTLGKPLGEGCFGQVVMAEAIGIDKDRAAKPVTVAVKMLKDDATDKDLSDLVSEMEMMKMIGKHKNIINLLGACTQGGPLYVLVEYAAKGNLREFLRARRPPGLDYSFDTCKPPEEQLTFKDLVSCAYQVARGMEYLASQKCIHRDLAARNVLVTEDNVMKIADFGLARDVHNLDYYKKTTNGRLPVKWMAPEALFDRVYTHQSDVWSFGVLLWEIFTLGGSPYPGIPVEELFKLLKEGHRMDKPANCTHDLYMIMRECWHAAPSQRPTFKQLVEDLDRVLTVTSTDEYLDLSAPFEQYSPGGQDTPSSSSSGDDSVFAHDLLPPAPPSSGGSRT
Protocol: (§1) To measure phosphorylated Fibroblast Growth Factor Receptor 1 and 3 (FGF1 and FGFR3), in house stable cell lines BAF3-TEL-FGFR1 or BAF3-TEL-FGFR3 were maintained in RPMI with 10% FBS and 1 μg/ml puromycin (Gibco/Life Technologies). […] The plates were gently shaken (100 rpm) for 2 minutes at room temperature to mix well and incubated for 2 hours in a single layer at 37° C., 5% CO2. 4 μl/well of 1/25 dilution of lysis buffer #3 (Cis Bio) was added with standard Protease inhibitors and shaken at 200 rpm at room temperature for 20 minutes. 4 μl total of the Cis Bio Tb-pFGFR Ab (10 ng) and d2-FGFR3 (1 ng) together were added to the lysate and mixed well. Plates were sealed and incubated at room temperature overnight in the dark. […] IC50 determination was performed by fitting the curve of inhibitor percent inhibition versus the log of the inhibitor concentration using the GraphPad Prism 5.0 software.

[3] = target: FGFR2 (UP) (Homo sapiens (Human), UniProt P21802); experiment: FGFR Enzymatic Assay, FGFR2 un-phosphorylated; details: read-out: FGFR2 (UP) IC50; un-phosphorylated enzyme, ATP near or below Km
Sequence of FGFR2 (UP) (P21802 22-821): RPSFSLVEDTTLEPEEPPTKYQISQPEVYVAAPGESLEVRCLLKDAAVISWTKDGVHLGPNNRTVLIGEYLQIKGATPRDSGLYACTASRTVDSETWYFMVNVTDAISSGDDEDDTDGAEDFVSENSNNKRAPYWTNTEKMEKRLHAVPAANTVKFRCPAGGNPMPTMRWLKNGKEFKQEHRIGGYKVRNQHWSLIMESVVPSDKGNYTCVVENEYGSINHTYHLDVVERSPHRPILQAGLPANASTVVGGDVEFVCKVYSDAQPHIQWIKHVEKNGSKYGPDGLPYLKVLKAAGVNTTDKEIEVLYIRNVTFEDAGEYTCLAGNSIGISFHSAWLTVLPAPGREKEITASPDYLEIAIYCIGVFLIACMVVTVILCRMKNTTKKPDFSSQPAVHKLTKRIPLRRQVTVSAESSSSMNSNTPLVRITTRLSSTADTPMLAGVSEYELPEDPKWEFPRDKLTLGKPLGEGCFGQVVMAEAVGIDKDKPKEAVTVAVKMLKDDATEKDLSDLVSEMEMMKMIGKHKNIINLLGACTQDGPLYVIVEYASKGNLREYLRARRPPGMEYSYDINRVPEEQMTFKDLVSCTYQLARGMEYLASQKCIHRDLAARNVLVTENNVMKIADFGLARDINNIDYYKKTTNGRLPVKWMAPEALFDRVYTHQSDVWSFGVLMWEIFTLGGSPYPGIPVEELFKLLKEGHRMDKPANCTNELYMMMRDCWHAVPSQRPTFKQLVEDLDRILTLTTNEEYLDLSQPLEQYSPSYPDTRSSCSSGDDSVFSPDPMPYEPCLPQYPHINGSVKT

[4] = target: FGFR3 (UP) (Homo sapiens (Human), UniProt P22607); experiment: FGFR Enzymatic Assay, FGFR3 un-phosphorylated; details: read-out: FGFR3 (UP) IC50; un-phosphorylated enzyme, ATP near or below Km
Sequence of FGFR3 (UP) (P22607 23-806): as the sequence (P22607 23-806 limits assumed) above

[5] = target: FGFR1 (UP) (Homo sapiens (Human), UniProt P11362); experiment: FGFR Enzymatic Assay, FGFR1 un-phosphorylated; details: read-out: FGFR1 (UP) IC50; un-phosphorylated enzyme, ATP near or below Km
Sequence of FGFR1 (UP) (P11362 22-822): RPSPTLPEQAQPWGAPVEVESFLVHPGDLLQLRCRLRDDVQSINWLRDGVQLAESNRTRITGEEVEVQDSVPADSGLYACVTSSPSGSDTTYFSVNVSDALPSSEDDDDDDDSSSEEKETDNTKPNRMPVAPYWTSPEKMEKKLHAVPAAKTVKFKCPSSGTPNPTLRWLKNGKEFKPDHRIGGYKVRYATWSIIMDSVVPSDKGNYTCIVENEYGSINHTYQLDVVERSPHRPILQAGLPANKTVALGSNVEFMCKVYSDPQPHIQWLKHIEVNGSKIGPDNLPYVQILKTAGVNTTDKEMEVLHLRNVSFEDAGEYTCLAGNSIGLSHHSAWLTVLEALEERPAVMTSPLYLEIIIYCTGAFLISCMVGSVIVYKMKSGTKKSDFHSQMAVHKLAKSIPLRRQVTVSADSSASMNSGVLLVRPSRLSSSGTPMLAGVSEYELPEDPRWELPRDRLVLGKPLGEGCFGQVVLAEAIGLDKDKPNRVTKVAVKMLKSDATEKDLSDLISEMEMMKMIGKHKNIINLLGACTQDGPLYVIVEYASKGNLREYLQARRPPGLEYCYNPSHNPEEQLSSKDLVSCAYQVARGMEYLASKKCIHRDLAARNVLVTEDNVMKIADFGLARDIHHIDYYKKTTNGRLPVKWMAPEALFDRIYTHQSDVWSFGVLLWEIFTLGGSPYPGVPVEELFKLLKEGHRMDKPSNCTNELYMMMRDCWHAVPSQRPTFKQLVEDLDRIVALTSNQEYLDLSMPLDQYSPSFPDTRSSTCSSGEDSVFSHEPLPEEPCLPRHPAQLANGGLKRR

[6] = target: FGFR2 (P) (Homo sapiens (Human), UniProt P21802); experiment: FGFR Enzymatic Assay, FGFR2 phosphorylated; details: read-out: FGFR2 (P) IC50; phosphorylated enzyme, ATP near or below Km
Sequence of FGFR2 (P) (P21802 22-821): as the sequence (P21802 22-821) above
Protocol: The inhibitor potency of the exemplified compounds was determined in an enzyme discontinuous assay that measures peptide phosphorylation using FRET measurements to detect product formation. Inhibitors were serially diluted in DMSO and a volume of 0.2 μL was transferred to the wells of a 384-well plate. For the isoforms of FGFR (−1, −2, −3 wild-type and mutant isoforms, −4) including phosphorylated (P) and un-phosphorylated (UP) proteins, a 5 μL/well volume of enzyme diluted in assay buffer (50 mM HEPES, 10 mM MgCl2, 1 mM EGTA, 0.01% Tween-20, 5 mM DTT, pH 7.5) was added to the plate and pre-incubated with inhibitor for 5 to 15 minutes at ambient temperature. Appropriate controls (enzyme blank and enzyme with no inhibitor) were included on the plate. The reaction was initiated by the addition of a 5 μL/well volume containing both biotinylated [sequence] […] The plate was allowed to equilibrate for −10 minutes at ambient temperature before scanning on a PheraStar plate reader (BMG Labtech) instrument.
Either GraphPad prism or XLfit was used to analyze the data. The IC50 values were derived by fitting the data to a four parameter logistic equation producing a sigmoidal dose-response curve with a variable Hill coefficient. Prism equation: Y=Bottom+(Top−Bottom)/(1+10^((LogIC50−X)*Hill slope)); XLfit equation: Y=(A+((B−A)/(1+((X/C)^D)))) where X is the logarithm of inhibitor concentration and Y is the response.

[7] = target: ALK2 (aa 147-end) (Homo sapiens (Human), UniProt Q04771); experiment: ALK2 HTRF Assay; type: biochemical
Sequence of ALK2 (aa 147-end) (Q04771 147-509): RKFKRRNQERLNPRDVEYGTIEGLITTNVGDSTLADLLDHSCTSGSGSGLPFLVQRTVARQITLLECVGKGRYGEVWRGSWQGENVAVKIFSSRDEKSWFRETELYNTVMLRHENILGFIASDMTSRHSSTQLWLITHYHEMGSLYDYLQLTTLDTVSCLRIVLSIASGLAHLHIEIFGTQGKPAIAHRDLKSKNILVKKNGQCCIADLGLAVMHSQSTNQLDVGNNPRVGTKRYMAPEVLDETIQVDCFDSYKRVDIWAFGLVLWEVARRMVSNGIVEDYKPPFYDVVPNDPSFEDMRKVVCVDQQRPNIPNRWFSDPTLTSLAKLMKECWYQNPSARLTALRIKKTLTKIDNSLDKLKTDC

[8] = target: FGFR1 (Homo sapiens, UniProt P11362); experiment: pFGFR1 Functional Cell HTRF Assay (BAF3-TEL-FGFR1 cells); type: cell-based; details: BAF3-TEL-FGFR1 cells, 2 hours; read-out: FGFR1 HTRF IC50
Sequence of FGFR1 (P11362 22-822 limits assumed): as the sequence (P11362 22-822) above
Protocol: as §1

[9] = test system: ALK2 mutant DIPG cell; details: ALK2 mutant DIPG cells; cited from earlier work

| SMILES | IC50 [1] [nM] | IC50 [2] [nM] | IC50 [3] [nM] | IC50 [4] [nM] | IC50 [5] [nM] | IC50 [6] [nM] | IC50 ([7]; ALK2 3 μM IC50, 3 uM ATP) [nM] | IC50 ([7]; ALK2 100 μM IC50, 100 uM ATP) [nM] | IC50 [8] [nM] | IC50 ([7]; read-out: ALK2 100 μM IC50, 100 uM ATP) [nM] | inhibition of ALK2 mutant DIPG cell viability [9] |
| --- | --- | --- | --- | --- | --- | --- | --- | --- | --- | --- | --- |
| Cn1cc(-c2n[nH]c3cnc(N4C5CCC4c4cn[nH]c4C5)nc23)cn1 (stereo not shown) [Example 45, 9-(3-(1-Methyl-1H-pyrazol-4-yl)-1H-pyrazolo[4,3-d]pyrimidin-5-yl)-1,4,5,6,7,8-hexahydro-4,7-epiminocyclohepta[c]pyrazole] | 100 to 500 | 100 to 500 | < 100 | < 100 | < 100 | < 100 | 500 to 2000 | 500 to 2000 | 500 to 2000 |  |  |
| CN1CC2CCC(C1=O)N2c1ncc2[nH]nc(-c3cnn(C)c3)c2n1 (stereo not shown) [Example 49, 3-Methyl-8-(3-(1-methyl-1H-pyrazol-4-yl)-1H-pyrazolo[4,3-d]pyrimidin-5-yl)-3,8-diazabicyclo[3.2.1]octan-2-one] | 100 to 500 | < 100 | < 100 | < 100 | < 100 | < 100 | 500 to 2000 |  | 500 to 2000 | > 2000 |  |
| c1ccc2c(-c3cnn4cc(-c5ccc(N6CCNCC6)cc5)cnc34)ccnc2c1 [LDN-19318917] |  |  |  |  |  |  |  |  |  |  | significant inhibition |
